Patent publication US20120129843A1, “PYRIDYL-THIAZOLYL INHIBITORS OF PRO-MATRIX METALLOPROTEINASE ACTIVATION” (priority 2010, published 2012)
Counter-ions that a name gives are not always drawn.

Legend:
[1] = target: T1, proMMP13(1-268) (SEQ ID NO:7) (Homo sapiens, UniProt P45452); test: ThermoFluor binding assay with proMMP13(1-268)
T1 construct: 6xHis (C); made in house; host or cells: HEK293 (transient, secreted)
Description: The ThermoFluor® (TF) assay is a 384-well plate-based binding assay that measures thermal stability of proteins (Biomol Screen 2001, 6, 429-40; Biochemistry 2005, 44, 5258-66). The experiments were carried out using instruments available from Johnson & Johnson Pharmaceutical Research & Development, LLC. TF dye used in all experiments was […] (1,8-ANS) (Invitrogen: A-47).
Compounds were arranged in a pre-dispensed plate (Greiner Bio-one: 781280), wherein compounds were serially diluted in 100% DMSO across 11 columns within a series. Columns 12 and 24 were used as DMSO reference and contained no compound. For multiple compound concentration-response experiments, the compound aliquots ([…]) were robotically predispensed directly into black 384-well polypropylene PCR microplates (Abgene: TF-0384/k) using a Cartesian Hummingbird liquid handler (DigiLab, Holliston, Mass.). Following compound dispense, protein and dye solutions were added to achieve the final assay volume of 3 μL. The assay solutions were overlayed with 1 μL of silicone oil (Fluka, type DC 200: 85411) to prevent evaporation.
Assay plates were robotically loaded onto a thermostatically controlled PCR-type thermal block and then heated from 40 to 90° C. at a ramp-rate of 1° C./min for all experiments. Fluorescence was measured by continuous illumination with UV light (Hamamatsu LC6) supplied via fiber optics and filtered through a band-pass filter (380-400 nm; >60D cutoff). Fluorescence emission of the entire 384-well plate was detected by measuring light intensity using a CCD camera (Sensys, Roper Scientific) filtered to detect 500±25 nm, resulting in simultaneous and independent readings of all 384 wells. A single image with 20-sec exposure time was collected at each temperature, and the sum of the pixel intensity in a given area of the assay plate was recorded vs temperature and fit to standard equations to yield the Tm (J Biomol Screen 2001, 6, 429-40).
Thermodynamic parameters necessary for fitting compound binding for each proMMP were estimated by differential scanning calorimetry (DSC) and from ThermoFluor® data. The heat capacity of unfolding for each protein was estimated from the molecular weight and from ThermoFluor® dosing data.
ThermoFluor® with proMMP13(1-268) (SEQ ID NO: 7)
The proMMP13(1-268) (SEQ ID NO:7) protein sample preparations included a desalting buffer exchange step via a PD-10 gravity column (GE Healthcare). The desalting buffer exchange was performed prior to diluting the protein to the final assay concentration of 3.5 μM. The concentration of proMMP13(1-268) (SEQ ID NO:7) was estimated spectrophotometrically based on a calculated extinction coefficient of ε280=37000 M^−1cm^−1, a calculated molecular weight of 30.8 kDa, and calculated pI of 5.33. ThermoFluor® reference conditions were defined as follows: 100 μg/mL proMMP13(1-268) (SEQ ID NO:7), 25 μM 1,8-ANS, pH 7.0 Buffer (50 mM HEPES pH 7.0, 100 mM NaCl, 0.001% Tween-20, 2.5 mM MgCl2, 300 μM CaCl2). The thermodynamic parameters for proMMP13(1-268) (SEQ ID NO:7) are as follows: Tm (° C.)=67 (+/−0.1), ΔUH(Tm) (cal mol^−1)=107000(+/−5000), ΔUS(Tm) (cal mol^−1 K^−1)=318, ΔUCp (cal mol^−1 K^−1)=2600.

[2] = target: T2, proMMP9(67-444;ΔFnII) (SEQ ID NO:5) (Homo sapiens, UniProt P14780, DEL216-390); test: ThermoFluor binding assay with proMMP9(67-444;ΔFnII)
T2 construct: start methionine (N); made in house; host or cells: E. coli BL21(DE3) RIL
T2 sequence (P14780 with tags, fused parts or gaps DEL216-390): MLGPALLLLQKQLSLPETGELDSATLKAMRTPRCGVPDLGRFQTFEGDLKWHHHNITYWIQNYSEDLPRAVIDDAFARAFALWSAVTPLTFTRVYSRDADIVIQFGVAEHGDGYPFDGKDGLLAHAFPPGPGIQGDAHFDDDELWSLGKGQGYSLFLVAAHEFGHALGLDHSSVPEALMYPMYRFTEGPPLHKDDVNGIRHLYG
Method in brief: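 Thermal shift with 3.5 μM desalted proMMP9(67-444;ΔFnII) and 50 μM 1,8-ANS in 50 mM HEPES pH 7.0, 100 mM NaCl, 0.001% Tween-20, 2.5 mM MgCl2, 300 μM CaCl2; compounds serially diluted. Heated 40–90 °C at 1 °C/min, fluorescence at 500 nm; Tm fit, binding modelled using DSC-derived thermodynamic parameters.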

[3] = target: T3, full-length proMMP9(1-707) (SEQ ID NO:1) from COS-1 cells, activation by catalytic MMP3 (Homo sapiens, UniProt P14780, R574P); test: ProMMP9/MMP3 DQ Gelatin Activation Assay; assay type: biochemical; settings: read-out: ProMMP9/MMP3 DQ gel Activation Assay, IC50
T3 construct: made in house; host or cells: COS-1 (proMMP9, secreted); E. coli (MMP3)
T3 sequence (P14780 20-707 R574P): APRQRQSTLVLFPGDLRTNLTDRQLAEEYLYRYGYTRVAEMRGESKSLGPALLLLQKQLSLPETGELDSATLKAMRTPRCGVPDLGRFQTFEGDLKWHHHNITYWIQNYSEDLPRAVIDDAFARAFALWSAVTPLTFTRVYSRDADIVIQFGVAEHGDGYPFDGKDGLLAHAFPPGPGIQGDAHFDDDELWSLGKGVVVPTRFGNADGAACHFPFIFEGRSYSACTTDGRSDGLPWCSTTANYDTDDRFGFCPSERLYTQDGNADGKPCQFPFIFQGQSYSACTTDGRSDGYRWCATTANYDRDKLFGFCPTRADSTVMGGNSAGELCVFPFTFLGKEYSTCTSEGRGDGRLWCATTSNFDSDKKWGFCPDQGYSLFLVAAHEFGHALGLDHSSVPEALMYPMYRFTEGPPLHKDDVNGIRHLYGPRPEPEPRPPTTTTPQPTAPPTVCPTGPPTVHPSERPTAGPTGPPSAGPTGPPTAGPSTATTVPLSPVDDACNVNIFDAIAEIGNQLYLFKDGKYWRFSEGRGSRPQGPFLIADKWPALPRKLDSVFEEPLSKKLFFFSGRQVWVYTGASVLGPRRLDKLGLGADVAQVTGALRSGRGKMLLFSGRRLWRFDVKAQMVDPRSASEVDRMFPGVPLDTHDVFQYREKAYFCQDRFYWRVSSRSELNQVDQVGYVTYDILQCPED
From the text: ProMMP9/MMP3 DQ Gelatin Activation Assay

[4] = target: T4, proMMP9(20-445;ΔFnII) (SEQ ID NO:6) (Homo sapiens, UniProt P14780, DEL216-390); test: ThermoFluor binding assay with proMMP9(20-445;ΔFnII)
T4 construct: start methionine (N); made in house; host or cells: E. coli BL21(DE3) RIL
T4 sequence (P14780 with tags, fused parts or gaps DEL216-390): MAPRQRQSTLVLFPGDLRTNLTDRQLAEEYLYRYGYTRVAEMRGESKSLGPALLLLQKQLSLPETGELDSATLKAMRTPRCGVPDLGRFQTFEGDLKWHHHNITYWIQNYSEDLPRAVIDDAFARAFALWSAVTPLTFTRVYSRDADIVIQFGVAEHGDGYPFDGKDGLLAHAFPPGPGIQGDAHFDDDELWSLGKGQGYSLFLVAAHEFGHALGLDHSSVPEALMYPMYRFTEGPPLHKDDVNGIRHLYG
Method in brief: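 Thermal-shift binding using 2.8 μM proMMP9(20-445;ΔFnII) with 50 μM 1,8-ANS in 50 mM HEPES pH 7.0, 100 mM NaCl, 0.001% Tween-20, 2.5 mM MgCl2, 300 μM CaCl2. Compound serially diluted; heated 40–90 °C at 1 °C/min, fluorescence 500 nm. Tm shifts fitted using DSC/ThermoFluor-derived thermodynamic parameters.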

[5] = target: T5, full-length proMMP9(1-707) (SEQ ID NO:1), activation by catalytic MMP3 (Homo sapiens, UniProt P14780, R574P); test: proMMP9/MMP3 P126 Activation Assay; assay type: biochemical
T5 construct: made in house; host or cells: HEK293 (proMMP9, secreted); E. coli (MMP3)
T5 sequence (P14780 20-707 R574P): as the sequence (P14780 20-707 R574P) above
Description: proMMP9/MMP3 P126 Activation Assay
The reaction volume was 50 μL. […] Reactivity of residual MMP3 towards P-126 substrate was minimal under these conditions.

[6] = target: T6, proMMP13(1-268) (SEQ ID NO:7), activation by plasmin (Homo sapiens, UniProt P45452); test: ProMMP13/Plasmin P126 Activation Assay; assay type: biochemical
T6 construct: 6xHis (C); made in house; host or cells: HEK293 (proMMP13, secreted)
Description: ProMMP13/Plasmin P126 Activation Assay
On the day of assay, proMMP13(1-268) (SEQ ID NO:7) purified from HEK293 cells and plasmin were diluted to 160 nM and 320 nM, respectively, in assay buffer. The reaction volume was 50 μL. […] The plate was sealed and incubated for 40 min at 37° C. […] Plasmin was not reactive towards P-126 substrate under these conditions.

Structure (SMILES) | Kd [1] [nM] | Kd [2] [µM] | IC50 [3] [µM] | Kd [4] [nM] | IC50 [5] [nM] | IC50 [6] [nM]
COc1ccc([N+](=O)[O-])cc1Nc1nc(-c2cccnc2)cs1 [Example 60, (2-Methoxy-5-nitro-phenyl)-(4-pyridin-3-yl-thiazol-2-yl)-amine] | 78000 | > 95 | 5.5 | > 95000 |  | 
CC(C)Oc1ccc(C(N)=O)cc1Nc1nc(-c2ccc(Br)nc2)cs1 [Example 20, 4-Isopropoxy-3-[4-(6-bromo-pyridin-3-yl)-thiazol-2-ylamino]-benzamide.TFA] | 230 | 3.3 |  | 340 | 640 | 
COc1ccc(S(N)(=O)=O)cc1Nc1nc(-c2cccnc2)cs1 [Example 12, 4-Methoxy-3-(4-pyridin-3-yl-thiazol-2-ylamino)-benzenesulfonamide.TFA] | > 95000 | 29 |  | 17000 | > 20000 | 
CC(C)Oc1ccc(C(N)=O)cc1Nc1nc(-c2cnccc2C(C)C)cs1 [Example 23, 4-Isopropoxy-3-[4-(4-isopropyl-pyridin-3-yl)-thiazol-2-ylamino]-benzamide.TFA] | 12000 | 18 |  | 11000 | ~14000 | 
Cc1cc2cccc(Nc3nc(-c4cccnc4)cs3)c2o1 [Example 3, (2-Methyl-benzofuran-7-yl)-(4-pyridin-3-yl-thiazol-2-yl)-amine] | > 95000 | 38 |  | 33000 | ~5000 | 
CC(C)Oc1ccc(C(N)=O)cc1Nc1nc(-c2cccnc2)cs1 [Example 1, 4-Isopropoxy-3-(4-pyridin-3-yl-thiazol-2-ylamino)-benzamide.HBr] | 310 | 1 |  | 160 | 360 | 
CC(C)Oc1ccc(C(N)=O)cc1Nc1nc(-c2ccnc(Cl)c2)cs1 [Example 21, 3-[4-(2-Chloro-pyridin-4-yl)-thiazol-2-ylamino]-4-isopropoxy-benzamide.TFA] | 1400 | 4.1 |  | 210 | 600 | 
CC(C)Oc1ccc(C(N)=O)cc1Nc1nc(-c2ccc(N3CCN(C)CC3)nc2)cs1 [Example 27, 4-Isopropoxy-3-{4-[6-(4-methyl-piperazin-1-yl)-pyridin-3-yl]-thiazol-2-ylamino}-benzamide.TFA] | 280 | 0.38 |  | 39 | 150 | 900

More lines, in order of falling Kd [1], values ahead:

Kd [1] [nM] | Kd [2] [µM] | IC50 [3] [µM] | Kd [4] [nM] | IC50 [5] [nM] | IC50 [6] [nM] | Structure (SMILES)
1200 | 10 |  | 2300 | 2400 |  | CC(C)Oc1ccc(S(N)(=O)=O)cc1Nc1nc(-c2cccnc2)cs1 [Example 13, 4-Isopropoxy-3-(4-pyridin-3-yl-thiazol-2-ylamino)-benzenesulfonamide.TFA]
730 | 0.47 |  | 250 | 280 |  | CC(C)Oc1ccc(C(N)=O)cc1Nc1nc(-c2ccncc2)cs1 [Example 15, 4-Isopropoxy-3-(4-pyridin-4-yl-thiazol-2-ylamino)-benzamide.HBr]
250 | 3.3 |  | 320 | 680 |  | CC(C)Oc1ccc(C(N)=O)cc1Nc1nc(-c2ccc(Cl)nc2)cs1 [Example 26, 3-[4-(6-Chloro-pyridin-3-yl)-thiazol-2-ylamino]-4-isopropoxy-benzamide.TFA]
